# Reference: patent US9981972B2, “N-hydroxy bicyclic hydantoin carbamates as tools for identification of serine hydrolase targets” (ABIDE THERAPEUTICS, INC., priority 2014, dated 2018)
# “Also recorded” adds a separate entry of the source. Like-named read-outs stand apart in the source and are kept apart here.
# Key:
# human LYPLA1 = biological target: T1, human LYPLA1 (Homo sapiens, UniProt O75608); assay: IC50 by gel-based competitive ABPP in vitro, soluble HeLa cell proteome; format: biochemical
# T1 construct: endogenous human LYPLA1/2 in a HeLa soluble proteome; endogenous in cells; host or cells: HeLa (soluble proteome in vitro; cultured cells in situ)
# T1 sequence (O75608 whole entry): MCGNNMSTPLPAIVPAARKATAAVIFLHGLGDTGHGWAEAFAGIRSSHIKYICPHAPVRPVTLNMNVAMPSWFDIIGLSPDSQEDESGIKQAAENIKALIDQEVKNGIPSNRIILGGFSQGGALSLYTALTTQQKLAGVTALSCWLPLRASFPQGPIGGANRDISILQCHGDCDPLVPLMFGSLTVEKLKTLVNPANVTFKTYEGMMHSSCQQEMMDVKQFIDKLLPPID
# Procedure: (§1) Assay Overview: The purpose of this assay was to determine IC50 values of powder samples of test compounds for enzyme of interest activity, and anti-targets in a complex proteomic lysate using a gel-based competitive ABPP assay. In this assay, a complex proteome was incubated with test compound followed by reaction with FP-Rh and SDS-PAGE analysis as described above.
# (§2) Protocol Summary: Soluble HeLa cell proteome (50 μL reaction volume, 1 mg/mL in DPBS) or mouse brain membrane proteome (50 μL reaction volume, 1 mg/mL in DPBS) was treated with varying concentrations of test compound (1 μL of a 50× stock in DMSO) for 30 minutes at 37° C. FP-Rh (1 μL of 50× stock in DMSO) was added to a final concentration of 2 μM. The reaction was incubated for 30 minutes at 25° C., quenched with 16 μL 4×SDS-PAGE loading buffer (reducing), separated by SDS-PAGE and visualized by in-gel fluorescent scanning. The percentage activity remaining was determined by measuring the integrated optical density of the enzymes of interest, and anti-target bands relative to a DMSO-only (no compound) control. IC50 values were determined from dose-response curves from three replicates at each inhibitor concentration: 1, 10, 100, 1000, 10000 nM and 0.01, 0.1, 1, 10, 100, 1000, 10000, 50000, and 100000 nM.
# human LYPLA2 = biological target: T2, human LYPLA2 (Homo sapiens, UniProt O95372); assay: as above; format: biochemical
# T2 construct: endogenous human LYPLA1/2 in a HeLa soluble proteome; endogenous in cells; host or cells: HeLa (soluble proteome in vitro; cultured cells in situ)
# T2 sequence (O95372 whole entry): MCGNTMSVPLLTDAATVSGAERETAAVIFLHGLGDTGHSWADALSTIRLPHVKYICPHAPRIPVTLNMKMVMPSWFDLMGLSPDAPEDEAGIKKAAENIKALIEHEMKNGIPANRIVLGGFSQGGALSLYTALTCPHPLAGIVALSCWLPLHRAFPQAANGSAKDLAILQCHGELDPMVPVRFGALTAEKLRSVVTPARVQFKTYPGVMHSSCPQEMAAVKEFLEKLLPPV
# Procedure: as §1, §2
# PPT1 [1] = biological target: T3, PPT1 (Homo sapiens, UniProt P50897); assay: In situ inhibition of hPPT1 in transfected HEK293T cells, competitive ABPP with Compound 39 probe; format: cell-based; set-up: expressed in transfected cells; host or cells: HEK293T
# T3 sequence (P50897 28-306): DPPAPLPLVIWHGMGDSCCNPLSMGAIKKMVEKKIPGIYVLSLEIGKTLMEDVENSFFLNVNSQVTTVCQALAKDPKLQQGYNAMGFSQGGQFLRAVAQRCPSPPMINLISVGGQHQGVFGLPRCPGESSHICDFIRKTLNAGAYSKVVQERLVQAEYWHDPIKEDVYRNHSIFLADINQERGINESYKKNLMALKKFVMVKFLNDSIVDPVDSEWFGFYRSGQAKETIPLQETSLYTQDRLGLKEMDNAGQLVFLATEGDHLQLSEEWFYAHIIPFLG
# Procedure: HEK293T cells were seeded at 2×10^5 per well on 6 well plates and grown for 48 h. They were then transfected with mABHD3 (pCMV-Sport6), hABHD4 (pcDNA3.1/myc-his), hPPT1 (pCMV6-XL5), or hPPT1 S115A (pCMV6-XL5), by incubating 0.5 μg of DNA with 3 μL of PEI MAX (1 mg/mL, Polysciences, Inc) in serum-free DMEM for 30 min, then adding them to cells. After 48 h cells were either treated with compound in situ, as described above, or harvested for in vitro studies. The […] PPT1 mutation was introduced using QuikChange II Site Directed Mutagenesis Kit (Agilent) with the following primers: […]
# In situ inhibitor treatments of human cell lines were performed as described previously (Hsu et al., J Med Chem 56, 8270-8279, 2012). Briefly, PC3 or transfected HEK293T cells were grown to confluency in serum-containing media (RPMI or DMEM, respectively). The culture media was then removed and replaced with fresh media containing DMSO or inhibitor at the desired concentration and incubated for 4 hours in a tissue culture incubator (37° C., 5% CO2). Cells were then washed with PBS, harvested, washed with PBS once more, and lysed with a probe sonicator.
# This possibility was explored by treating HEK293T cells transfected with human PPT1 (hPPT1) with Compound 37 (5 μM, 4 h pre-treatment) or DMSO followed by cell lysis and treatment with Compound 39 (5 μM, 1 h). A strong, but diffuse Compound 37-sensitive, Compound 39-labeled protein band was detected by gel-based ABPP in hPPT1-transfected, but not mock-transfected cell lysates (see FIG. 14), and this diffuse signal was compressed to a tight, faster-migrating band matching the predicted molecular weight of PPT1 following treatment with the glycosidase PNGaseF (see FIG. 14). Western blotting with an anti-PPT1 antibody confirmed a similar migration pattern for hPPT1 protein in transfected cell lysates (see FIG. 14, bottom panel).
# A structurally diverse panel of N-hydroxy bicyclic hydantoin carbamates were assayed at 2 or 0.2 μM for in situ inhibition of hPPT1 in transfected HEK293T cells.
# PPT1 [2] = biological target: T3, PPT1; assay: PPT1 substrate assay in vitro, hPPT1-transfected HEK293T cell lysates; format: biochemical; set-up: expressed in transfected cells; host or cells: HEK293T; settings: for activity against PPT1 in situ and in vitro: in words, figures in the 9th table
# Procedure: PPT1 activity was assessed in vitro using a substrate assay adapted from previous studies (van Diggelen et al., Molecular genetics and metabolism 66, 240-244, 1999). Lysates from HEK293T cells transfected with an empty vector, or human PPT1 under a CMV promoter were adjusted to 1 mg/ml in PBS (25 μl), and then combined 1:1 with Mcllvain's phosphate/citrate buffer containing 0.375% (v/v) Triton-X 100 and 15 mM DTT (pH 5.0). This sample was pre-treated with inhibitor or DMSO for 30 minutes at 37° C., and 10 μl (5 μg protein) was used in the substrate assay as follows: Samples were diluted in a black 96-well plate (half-area) with 20 μl McIlvain's phosphate/citrate buffer (pH 5.0) containing 0.375% TX-100 and 15 mM DTT, as well as 0.64 mM MU-6S-Palm-PD-Glc and 0.1 U sweet almond glucosidase (Sigma). The reactions were incubated at 37° C. for 1 hour, quenched with 120 μl sodium bicarbonate buffer (pH 10.0), and hydrolysis by 4-MU fluorescence measured by excitement at […] and emission intensity at […]. 16 μg protein was used for analysis of native PC3 cells.
# Compound 26 was then tested to see if it inhibited PPT1 activity using a substrate assay. Endogenous substrates for PPT1 remain poorly characterized, but this enzyme was assayed with a fluorogenic substrate 4-methylumbelliferyl-6-thio-palmitate-βD-glucopyranoside (MU-6S-Palm-βD-Glc). In this assay, PPT1 hydrolyzes the substrate's palmitoyl thioester bond, and exogenous sweet almond β-glucosidase deglycosylates and frees the fluorophore, 4-methylumbelliferone (4-MU), which is measured to assess PPT1 activity.
# [3] = hPPT1-transfected HEK293T cells, in situ, read-out: hPPT1 (in situ), IC50
# [4] = cell lysates, pH 5.0, MU-6S-Palm-βD-Glc substrate, 95% confidence intervals in parentheses, read-out: IC50 for inhibition of human PPT1, in vitro (substrate)
# [5] = first value of the cell, read-out: hLYPLA1/2 in vitro potency (IC50): hLYPLA1
# [6] = second value of the cell, read-out: hLYPLA1/2 in vitro potency (IC50): hLYPLA2
structure (smiles),measurement,setting,value
"O=C(ON1C(=O)C2CN(C(=O)N3CCOCC3)CCN2C1=O)N1CCC(CCc2ccc(Cl)cc2)CC1 (stereo not drawn) [Compound 1, 7-(morpholine-4-carbonyl)-1,3-dioxohexahydroimidazo[1,5-a]pyrazin-2(3H)-yl 4-(4-chloro-phenethyl)piperidine-1-carboxylate]",IC50,"human LYPLA1; HeLa cell lysates, FP-Rh, read-out: human LYPLA1 IC50 in vitro",122 nM
same,IC50,"human LYPLA2; HeLa cell lysates, FP-Rh, read-out: human LYPLA2 IC50 in vitro",245 nM
same,IC50,PPT1 [1]; [3],500 nM
same,IC50,PPT1 [2]; [4],15000 nM
same,activity against PPT1 in situ and in vitro,PPT1 [2],"did, however, inhibit PPT1 activity"
"COc1ccc(N2CCN(C(=O)ON3C(=O)C4CN(CC5CCN(Cc6ccccc6)CC5)CCN4C3=O)CC2)cc1 (stereo not drawn) [Compound 26, 7-((1-benzylpiperidin-4-yl)methyl)-1,3-dioxohexahydroimidazo[1,5-a]pyrazin-2(3H)-yl 4-(4-methoxyphenyl)piperazine-1-carboxylate]",in situ inhibition of hPPT1 at 200 nM,"PPT1 [1]; 200 nM, transfected HEK293T cells",complete inhibition
same,IC50,"PPT1 [1]; gel-based competitive ABPP, read-out: in situ IC50 for recombinant PPT1",100 nM
same,IC50,"PPT1 [2]; transfected lysates, pH 5.0, MU-6S-Palm-βD-Glc, read-out: PPT1 IC50, substrate assay",6500 nM
"O=C(ON1C(=O)C2CN(Cc3ccc(Oc4ccccc4)cc3)CCN2C1=O)N1CCOCC1 (stereo not drawn) [Compound 34, 1,3-dioxo-7-(4-phenoxybenzyl)hexahydroimidazo[1,5-a]pyrazin-2(3H)-yl morpholine-4-carboxylate]",IC50,PPT1 [1]; [3],3900 nM
same,IC50,PPT1 [2]; [4],> 50000 nM
same,activity against PPT1 in situ and in vitro,PPT1 [2],limited activity against PPT1
"COc1ccc(N2CCN(C(=O)ON3C(=O)C4CN(Cc5ccc(Oc6ccccc6)cc5)CCN4C3=O)CC2)cc1 (stereo not drawn) [Compound 37, 1,3-dioxo-7-(4-phenoxybenzyl)hexahydroimidazo[1,5-a]pyrazin-2(3H)-yl 4-(4-methoxyphenyl)piperazine-1-carboxylate]","hPPT1 (in situ), % @ 2 μM","PPT1 [1]; 2 μM, hPPT1-transfected HEK293T cells, in situ",100% @ 2 μM
same,reaction with hPPT1 / blockade of Compound 39 labeling,"PPT1 [1]; 5 μM, 4 h pre-treatment, hPPT1-transfected HEK293T cells",blocked; also recorded: reacted with PPT1
"COc1ccc(N2CCN(C(=O)ON3C(=O)[C@@H]4CN(CC5CCN(Cc6ccccc6)CC5)CCN4C3=O)CC2)cc1 [Compound 42, (S)-7-((1-benzylpiperidin-4-yl)methyl)-1,3-dioxo-hexahydroimidazo[1,5-a]pyrazin-2(3H)-yl 4-(4-methoxyphenyl)piperazine-1-carboxylate]",IC50,"PPT1 [2]; human PPT1, in vitro, method not stated at Table 5, read-out: hPPT1 in vitro potency (IC50)",3970 nM
"C#Cc1ccc(CCC2CCN(C(=O)ON3C(=O)[C@@H]4CN(C(=O)N5CCOCC5)CCN4C3=O)CC2)cc1 [Compound 48, (S)-7-(morpholine-4-carbonyl)-1,3-dioxo-hexahydroimidazo[1,5-a]pyrazin-2(3H)-yl 4-(4-ethynylphenethyl)piperidine-1-carboxylate]",IC50,human LYPLA1; [5],1750 nM
same,IC50,human LYPLA2; [6],1830 nM
"C#Cc1ccc(CCC2CCN(C(=O)ON3C(=O)[C@H]4CN(C(=O)N5CCOCC5)CCN4C3=O)CC2)cc1 [Compound 49, (R)-7-(morpholine-4-carbonyl)-1,3-dioxo-hexahydroimidazo[1,5-a]pyrazin-2(3H)-yl 4-(4-ethynylphenethyl)piperidine-1-carboxylate]",IC50,human LYPLA1; [5],842 nM
same,IC50,human LYPLA2; [6],1430 nM
